TGI and GI50 data for 37 compounds are collected here from PubChem BioAssay (NCI).

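1) Cells in 96-well plates. 2) Compound, 48 h, 5 concentrations. 3) Linear interpolation between surrounding doses. 4) Unreached endpoint = highest concentration. GI50 = concentration required for 50% inhibition of growth. At the TGI there is no net growth.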

Test systems include DMS 273 small cell lung; M19-MEL melanoma; DLD-1 colon; DMS 114 small cell lung; LXFL 529 NSCLC; HOP-18 NSCLC; RXF-631 renal; MDA-N; XF 498 CNS.
Holding throughout (assay): NCI anticancer screen, dose series, 48 h

As to `O=c1c2ccccc2c(=O)c2c1cc(Cl)c1[nH]c3c([nH]c12)c(Cl)cc1c(=O)c2ccccc2c(=O)c13`, the TGI in the assay on DMS 273 small cell lung, in the assay with M19-MEL melanoma, in the assay on DLD-1 colon and in the assay with DMS 114 small cell lung was over 100 µM in each case.

In the case of `N#CCC(=O)N/N=C1\C(=O)N(c2ccc(Cl)cc2)C(=O)C(=O)C1c1nc2ccccc2o1` (configuration not stated), the TGI in the assay on DMS 273 small cell lung, with M19-MEL melanoma, in the assay on LXFL 529 NSCLC, in the assay with DLD-1 colon, in the assay on DMS 114 small cell lung and in the assay with HOP-18 NSCLC was over 100 µM each time. Further, in the assay with RXF-631 renal, the TGI was over 100 µM.

In the case of `Cc1ccccc1N=Nc1c(O)[nH]c2ccccc12`, in the assay on MDA-N, the TGI was over 100 µM.

Regarding `O=C(CCCc1ccccn1)c1ccccc1`, the TGI in the assay on MDA-N was over 100 µM.

Turning to `Cc1cc(NS(=O)(=O)c2ccc(NC(=O)c3cccc4c(Nc5ccc(S(=O)(=O)Nc6cc(C)on6)cc5)c5ccccc5nc34)cc2)no1`, the TGI is over 100 µM with DMS 273 small cell lung; 96.1 µM in the assay on XF 498 CNS; over 100 µM with M19-MEL melanoma; 95.5 µM in the assay with LXFL 529 NSCLC; over 100 µM with DLD-1 colon; over 100 µM with DMS 114 small cell lung. The compound further had a TGI in the assay with HOP-18 NSCLC of 69.3 µM.

In the assay with MDA-N, `CN1c2ccccc2S(=O)(=O)n2c(COc3ccc(Cl)cc3)nnc21` yielded a TGI of over 100 µM.

Compound `CC1(C)CC2C=C(C=O)C3(C=O)CC3(C)C2C1` (configuration not stated) gave a TGI with MDA-N of 9.36 µM.

Regarding `COc1cccc(NC(=O)CC(=O)N2NC(C)C(N=Nc3cccc(C(=O)O)c3)C2=O)c1` (configuration not stated), the TGI with DMS 273 small cell lung, in the assay with M19-MEL melanoma, with LXFL 529 NSCLC, in the assay on DLD-1 colon, in the assay with DMS 114 small cell lung and in the assay on HOP-18 NSCLC was over 100 µM each time. In addition, the TGI in the assay on RXF-631 renal is over 100 µM.

For the compound `C[C@H]1CC[C@@H]2[C@@H](C)[C@H]3[C@H](C[C@H]4[C@@H]5CC=C6C[C@@H](O)CC[C@]6(C)[C@H]5C[C@H](O)[C@]34C)N2C1`, the TGI with MDA-N is over 100 µM.

For the compound `C[C@H]1CC(=O)C2=CCCC3(SCCCS3)[C@@H]2[C@H]1CO`, the TGI in the assay with DMS 273 small cell lung, in the assay on XF 498 CNS, in the assay on M19-MEL melanoma, with LXFL 529 NSCLC, in the assay with DLD-1 colon and with DMS 114 small cell lung was over 100 µM each time. Moreover, the TGI with HOP-18 NSCLC and with RXF-631 renal was over 100 µM each time.

Consider `COc1cc2c3c(n(C)c(=O)c2cc1OC)-c1cc2c(cc1/C3=C\CCCBr)OCO2`, for which, in the assay with MDA-N, the GI50 is over 100 µM and the TGI was over 100 µM.

As to `COc1cc([C@@H]2c3cc4c(cc3[C@H](O)[C@H]3COC(=O)[C@H]23)OCO4)cc(OC)c1OC`, the TGI was over 100 µM in the assay on XF 498 CNS; over 100 µM with LXFL 529 NSCLC; over 100 µM in the assay on DLD-1 colon; over 100 µM with HOP-18 NSCLC; 0.5 µM in the assay with MDA-N.

On to `CCN(CC)CCNC(=O)c1cccc2cc3ccccc3nc12`, for which the TGI in the assay with DMS 273 small cell lung came to 24.3 µM; in the assay with M19-MEL melanoma, 16.6 µM; with DLD-1 colon, 20.7 µM; in the assay on DMS 114 small cell lung it was 19.2 µM; with HOP-18 NSCLC it was 88.5 µM; in the assay with RXF-631 renal, 32.8 µM.

`CC1=C(/C=C/C(C)=C/C=C/C(C)=C/C(=O)Nc2ccc(O)cc2)C(C)(C)CCC1` registered a TGI with MDA-N of 8.35 µM.

`O=C(O)C#CCO`: the TGI in the assay with DMS 273 small cell lung, with XF 498 CNS, with M19-MEL melanoma, with LXFL 529 NSCLC, in the assay with DMS 114 small cell lung and in the assay with RXF-631 renal was over 100 µM throughout.

In the case of `O=C1/C(=C/c2ccccc2)CCC/C1=C\c1ccccc1`, the TGI is 21.5 µM in the assay with DMS 273 small cell lung; 6.98 µM in the assay with M19-MEL melanoma; 15.8 µM in the assay with LXFL 529 NSCLC; 8.83 µM in the assay with DLD-1 colon; 24.3 µM in the assay with DMS 114 small cell lung; 38.7 µM with HOP-18 NSCLC. Also, the TGI in the assay on RXF-631 renal was 50.5 µM; in the assay with MDA-N it was 7.71 µM.

Compound `CCc1c(Cl)nc(Cl)nc1Cl` came in with a TGI in the assay with MDA-N of 10.8 µM.

As for `NCC(NC(=O)OCc1ccccc1)C(=O)O` (configuration not stated), the TGI in the assay on DMS 273 small cell lung, with M19-MEL melanoma, with LXFL 529 NSCLC, in the assay with DLD-1 colon, in the assay on DMS 114 small cell lung and with HOP-18 NSCLC was over 50 µM in each case.

Compound `CCC1CC(=O)N(SCC(N)C(=O)O)C1=O` (configuration not stated) showed a TGI with MDA-N of over 100 µM.

For the compound `Cc1cc(C(=O)N2CCN(Cc3ccccc3)CC2)c(C)o1`, the TGI in the assay with XF 498 CNS, in the assay on M19-MEL melanoma, in the assay on LXFL 529 NSCLC, in the assay on DLD-1 colon, in the assay on DMS 114 small cell lung and in the assay with HOP-18 NSCLC was over 100 µM in each case.

For the compound `CN(c1ccccc1)C1C(=O)N(c2ccccc2)C1/C=C/c1ccccc1` (configuration not stated), the TGI in the assay on DMS 273 small cell lung, in the assay on M19-MEL melanoma, with LXFL 529 NSCLC and with DLD-1 colon was over 100 µM each time.

Take `Cc1cc(C)cc(Sc2c([N+](=O)[O-])ncn2C)c1`: the TGI in the assay on DMS 273 small cell lung was found to be 25.8 µM; with XF 498 CNS it was 59.5 µM; in the assay on M19-MEL melanoma it was 84.1 µM; with LXFL 529 NSCLC it was 40.9 µM; in the assay on DLD-1 colon, 27.5 µM; in the assay with DMS 114 small cell lung it was 34.4 µM. The values for the TGI in the assay on HOP-18 NSCLC and with RXF-631 renal were 14.4 µM and 51.3 µM, respectively.

In the case of `O=c1[nH]c(SCc2c(Cl)c(Cl)c(Cl)c(Cl)c2Cl)nc(=S)[nH]1`, the TGI in the assay on MDA-N was over 100 µM.

In the assay with MDA-N, `O=C(O)CCCCn1cnc2c(=S)nc[nH]c21` returned a TGI of over 100 µM.

For the compound `CCC[CH2][Sn]([CH2]CCC)([O]C(=O)c1nccnc1N)[O]C(=O)c1nccnc1N`, the GI50 is 869 nM with DMS 273 small cell lung; 1380 nM with XF 498 CNS; 124 nM in the assay on LXFL 529 NSCLC; 876 nM with DLD-1 colon; 2320 nM with HOP-18 NSCLC. Also, the TGI with DMS 273 small cell lung came to 2.12 µM; with XF 498 CNS, 2.68 µM; with M19-MEL melanoma, 1.49 µM; in the assay with LXFL 529 NSCLC, 0.327 µM; in the assay on DLD-1 colon, 2.12 µM; with HOP-18 NSCLC it was 3.8 µM.

As to `O=C(O)C1CCCCN1C(=O)c1ccccc1` (configuration not stated), the TGI in the assay with DMS 273 small cell lung, in the assay with XF 498 CNS, in the assay with M19-MEL melanoma, with LXFL 529 NSCLC, in the assay on DLD-1 colon and with DMS 114 small cell lung was over 100 µM each time. In addition, the TGI with HOP-18 NSCLC and in the assay on RXF-631 renal was over 100 µM in each case.

Regarding `C=C(CS(=O)(=O)c1ccccc1)[P+](c1ccccc1)(c1ccccc1)c1ccccc1`, the TGI with DMS 273 small cell lung was 33.4 µM; with XF 498 CNS it was 28.9 µM; with M19-MEL melanoma it was 50.4 µM; in the assay on DLD-1 colon, over 100 µM; in the assay with DMS 114 small cell lung, 58.7 µM.

Turning to `O=C(O)CCC1(Br)CCCCC(Br)C1=O` (configuration not stated), the TGI in the assay on DMS 273 small cell lung, with XF 498 CNS, with M19-MEL melanoma, in the assay on LXFL 529 NSCLC, in the assay with DMS 114 small cell lung and with HOP-18 NSCLC was over 100 µM throughout.

Regarding `C/C(=N/NC(=O)C(N)=O)C(CC(C(=O)Nc1ccccc1C)/C(C)=N\NC(=O)C(N)=O)C(=O)Nc1ccccc1C` (configuration not stated), the TGI with M19-MEL melanoma, in the assay on LXFL 529 NSCLC and in the assay with DLD-1 colon was over 100 µM throughout.

Regarding `CC(=O)OC1C(CCl)OC(N=[N+]=[N-])C(OC(C)=O)C1OC(C)=O` (configuration not stated), the TGI in the assay with DMS 273 small cell lung, with XF 498 CNS, in the assay on M19-MEL melanoma, with DLD-1 colon, in the assay on DMS 114 small cell lung and with RXF-631 renal was over 100 µM throughout.

`CC1OC(OC2CC(O)C3(CO)C4C(O)CC5(C)C(C6=CC(=O)OC6)CCC5(O)C4CCC3(O)C2)C(O)C(O)C1O` (configuration not stated): in the assay on MDA-N, the GI50 is under 0.0195 µM and the TGI is 0.122 µM.

On to `CC(C)(C)[Si](C)(C)O/N=C\c1ccc(O[Si](C)(C)C(C)(C)C)cc1`, for which the TGI in the assay on DMS 273 small cell lung was over 100 µM; in the assay on XF 498 CNS it was 83 µM; with M19-MEL melanoma it was over 100 µM; in the assay with LXFL 529 NSCLC, over 100 µM; in the assay on DLD-1 colon, over 100 µM; in the assay on DMS 114 small cell lung, 75.3 µM. Further, the TGI with HOP-18 NSCLC is over 100 µM; with RXF-631 renal, 53.5 µM.

In the assay with MDA-N, `CC(=O)OC1CCC2(C)C(=CCC3C2CCC2(C)C(C(C)C(=O)O)CCC32)C1` (configuration not stated) showed a TGI of over 100 µM.

For the compound `C=C1Oc2nc3ccccc3c(=O)n2C1(C)C`, the TGI with DMS 273 small cell lung, with XF 498 CNS, in the assay with M19-MEL melanoma, with LXFL 529 NSCLC, in the assay with DLD-1 colon and in the assay with DMS 114 small cell lung was over 100 µM throughout. In the assay with HOP-18 NSCLC, this compound gave a TGI of over 100 µM.

For the compound `O=C(NNC(=O)c1ccncc1)c1ccncc1`, the TGI in the assay with MDA-N is over 100 µM.

Regarding `CC(C)c1cccc(C(C)C)c1NC(=O)C(=O)C(C(=O)c1ccc2ccccc2c1)C1OC(=O)c2ccccc21` (configuration not stated), the TGI in the assay on M19-MEL melanoma, in the assay on LXFL 529 NSCLC, with DLD-1 colon and in the assay on DMS 114 small cell lung was over 100 µM in each case.

In turn, `CC(=O)OC(C)(C)N=Nc1ccc(Br)cc1` had a TGI in the assay with MDA-N of over 100 µM.
